The text below walks through data of article PMC8274277 (Antiviral Research, 2021).

Like-named read-outs stand apart in the source and are kept apart here.

Test [1] concerns SARS-CoV-2. Description: Antiviral assay using bronchial human airway epithelium. In kind it is cell-based, SARS-CoV-2 strain BavPat1.
Test [2] concerns SARS-CoV-2. Description: Lung histology of infected hamsters. In kind it is in vivo, golden Syrian hamsters. The settings on record: sacrificed at 5 dpi.
Test [3] has as its system SARS-CoV-2. Further details: species or system golden Syrian hamsters. The settings on record: hamster, in vivo.
The conditions of test [4]: hospitalized COVID-19 patients; ref Aman et al., 2021; cited from earlier work.
In test [5] the test system is SARS-CoV-2. Type of test: cell-based, SARS-CoV-2 strain BavPat1. The settings on record: VeroE6 cells.

As for `CCC(CC)COC(=O)[C@H](C)N[P@](=O)(OC[C@H]1O[C@@](C#N)(c2ccc3c(N)ncnn23)[C@H](O)[C@@H]1O)Oc1ccccc1` [Remdesivir], the “antiviral activity (viral RNA yields and infectious titres in apical washes)” value in the test on SARS-CoV-2 [1] is reported as “strong antiviral activity”.

`Cc1ccc(NC(=O)c2ccc(CN3CCN(C)CC3)cc2)cc1Nc1nccc(-c2cccnc2)n1` [Imatinib]: in the test with SARS-CoV-2 [2] (first experiment, 32 mg/day), the “lung histopathological impairements vs untreated group” value is given as “significant improvement”. The “lung histopathology grade severity” value in the test with SARS-CoV-2 [2] (second experiment, 32, 16 and 8 mg/day) is on record as “did not led to a significant improvement”. Besides, in the test on SARS-CoV-2 [3] (po), the “molecular plasma viral loads” value was “did not affect significantly”. Besides, in test [4], the “time to discontinuation of supplemental oxygen and mechanical ventilation” value is “does not reduce the time to discontinuation of supplemental oxygen and mechanical ventilation”. In addition, the “viral RNA yields in apical washes” value with SARS-CoV-2 [1] was “small significant reduction”. Further, the “antiviral activity (viral RNA yields and infectious titres in apical washes)” value in the test with SARS-CoV-2 [1] ([…], imatinib 10, 5, remdesivir 10 μM) is on record as “no other significant antiviral activity”.

On to `O=C(Nc1ccc(OC(F)(F)Cl)cc1)c1cnc(N2CC[C@@H](O)C2)c(-c2cc[nH]n2)c1` [Asciminib], for which the “selectivity Index (SI, CC50/EC50)” value in the test on SARS-CoV-2 [5] is reported as 1.1. Also, the antiviral activity result in the test with SARS-CoV-2 [5] (SARS-CoV-2) is on record as “did not show any antiviral activity”.

For the molecule `NC(=O)c1nc(F)c[nH]c1=O` [Favipiravir], in the test on SARS-CoV-2 [3], the “lung infectious titers (TCID50 assay)” value is given as “significant reductions”; the “lung viral RNA yields (RT-qPCR)” value is “significant reductions”; the “viral replication in clarified lung homogenates and plasma” value is reported as “significant reduction of viral replication”.

Turning to `Cc1ccc(NC(=O)c2ccc(CN3CCN(C)CC3)cc2)cc1Nc1nc(-c2cccnc2)cs1` [Masitinib], the “selectivity Index (SI, CC50/EC50)” value in the test on SARS-CoV-2 [5] is listed as 11.5.
